Results taken from ChEMBL document CHEMBL4507293 (2021).

What was measured:
[1] = target: Serine/threonine-protein kinase pim-3 (Homo sapiens) (UniProt Q86V86); details: Compound concentration 100.0 nM
[2] = target: Serine/threonine-protein kinase RIO1 (Homo sapiens) (UniProt Q9BRS2); details: Compound concentration 100.0 nM
[3] = target: Mitogen-activated protein kinase kinase kinase kinase 2 (Homo sapiens) (UniProt Q12851); details: Compound concentration 100.0 nM
Rattus norvegicus = organism: Rattus norvegicus; details: Compound concentration 10.0 uM
[4] = target: Activin receptor type-1 (Homo sapiens) (UniProt Q04771); details: Compound concentration 100.0 nM
[5] = target: Non-receptor tyrosine-protein kinase TNK1 (Homo sapiens) (UniProt Q13470); details: Compound concentration 100.0 nM
[6] = target: Leucine-rich repeat serine/threonine-protein kinase 2 (Homo sapiens) (UniProt Q5S007); details: Compound concentration 100.0 nM
[7] = system: eIF-2-alpha kinase GCN2 (Homo sapiens), Q9P2K8 [S808G]; details: Compound concentration 100.0 nM
[8] = target: BDNF/NT-3 growth factors receptor (Homo sapiens) (UniProt Q16620); details: Compound concentration 100.0 nM
[9] = system: Receptor-type tyrosine-protein kinase FLT3 (Homo sapiens), P36888 [UNDEFINED MUTATION]; details: Compound concentration 100.0 nM
[10] = system: Mast/stem cell growth factor receptor Kit (Homo sapiens), P10721 [L576P]; details: Compound concentration 100.0 nM
[11] = target: Serine/threonine-protein kinase PAK 5 (Homo sapiens) (UniProt Q9P286); details: Compound concentration 100.0 nM
[12] = target: Tyrosine-protein kinase Fgr (Homo sapiens) (UniProt P09769); details: Compound concentration 100.0 nM
[13] = target: Ephrin type-A receptor 5 (Homo sapiens) (UniProt P54756); details: Compound concentration 100.0 nM
[14] = system: Tyrosine-protein kinase ABL1 (Homo sapiens), P00519 [H396P]; details: Compound concentration 100.0 nM
[15] = target: Beta-3 adrenergic receptor (Homo sapiens) (UniProt P13945); details: Compound concentration 10.0 uM
[16] = target: Fibroblast growth factor receptor 1 (Homo sapiens) (UniProt P11362); details: Compound concentration 100.0 nM
[17] = target: Ephrin type-B receptor 2 (Homo sapiens) (UniProt P29323); details: Compound concentration 100.0 nM
[18] = target: Tyrosine-protein kinase Srms (Homo sapiens) (UniProt Q9H3Y6); details: Compound concentration 100.0 nM
[19] = target: Tyrosine-protein kinase SYK (Homo sapiens) (UniProt P43405); details: Compound concentration 100.0 nM
[20] = target: Mitogen-activated protein kinase kinase kinase 5 (Homo sapiens) (UniProt Q99683); details: Compound concentration 100.0 nM
[21] = target: cGMP-dependent 3',5'-cyclic phosphodiesterase (Homo sapiens, UniProt O00408); test: Biochemical assay (PDE2A)
Sequence of cGMP-dependent 3',5'-cyclic phosphodiesterase (O00408 whole entry): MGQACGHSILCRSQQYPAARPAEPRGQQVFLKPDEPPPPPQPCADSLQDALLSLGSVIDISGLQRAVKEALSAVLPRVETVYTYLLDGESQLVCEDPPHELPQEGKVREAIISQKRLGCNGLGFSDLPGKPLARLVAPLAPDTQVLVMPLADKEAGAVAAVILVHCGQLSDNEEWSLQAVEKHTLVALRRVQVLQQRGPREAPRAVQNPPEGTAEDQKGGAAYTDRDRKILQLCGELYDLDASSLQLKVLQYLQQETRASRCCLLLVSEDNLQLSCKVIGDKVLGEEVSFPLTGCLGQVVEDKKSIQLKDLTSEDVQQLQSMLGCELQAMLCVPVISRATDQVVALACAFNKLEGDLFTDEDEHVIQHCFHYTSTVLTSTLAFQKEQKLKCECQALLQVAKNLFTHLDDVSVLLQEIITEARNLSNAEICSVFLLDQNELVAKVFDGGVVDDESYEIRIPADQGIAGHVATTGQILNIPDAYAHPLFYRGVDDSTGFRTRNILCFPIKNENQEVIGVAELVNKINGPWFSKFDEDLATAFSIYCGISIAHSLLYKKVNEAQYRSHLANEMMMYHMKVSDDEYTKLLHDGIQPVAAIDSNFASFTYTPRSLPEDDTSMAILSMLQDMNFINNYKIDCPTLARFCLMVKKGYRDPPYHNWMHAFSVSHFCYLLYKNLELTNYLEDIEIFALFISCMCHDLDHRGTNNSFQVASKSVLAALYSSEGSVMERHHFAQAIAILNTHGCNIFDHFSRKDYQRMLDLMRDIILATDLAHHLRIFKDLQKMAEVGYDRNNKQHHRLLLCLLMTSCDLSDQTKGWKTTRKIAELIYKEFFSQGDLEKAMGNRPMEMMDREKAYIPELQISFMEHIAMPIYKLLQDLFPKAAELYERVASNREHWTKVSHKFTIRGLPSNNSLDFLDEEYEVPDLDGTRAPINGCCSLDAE

[22] = target: Activin receptor type-1-like (Homo sapiens) (UniProt P37023); details: Compound concentration 100.0 nM
Sequence of Activin receptor type-1-like (Homo sapiens) (P37023 whole entry): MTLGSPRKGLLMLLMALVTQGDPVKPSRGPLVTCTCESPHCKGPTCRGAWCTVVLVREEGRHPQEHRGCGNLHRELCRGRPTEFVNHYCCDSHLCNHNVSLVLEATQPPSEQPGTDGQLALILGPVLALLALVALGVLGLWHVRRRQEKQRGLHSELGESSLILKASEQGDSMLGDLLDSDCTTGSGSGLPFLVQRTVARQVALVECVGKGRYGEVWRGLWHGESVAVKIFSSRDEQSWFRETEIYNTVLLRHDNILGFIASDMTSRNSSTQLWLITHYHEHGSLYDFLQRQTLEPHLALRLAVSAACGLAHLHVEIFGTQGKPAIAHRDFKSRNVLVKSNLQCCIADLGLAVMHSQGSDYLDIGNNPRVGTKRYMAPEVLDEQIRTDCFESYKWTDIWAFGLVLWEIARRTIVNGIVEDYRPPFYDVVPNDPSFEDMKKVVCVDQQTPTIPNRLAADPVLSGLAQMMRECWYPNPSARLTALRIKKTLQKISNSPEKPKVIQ

[23] = target: Mitogen-activated protein kinase kinase kinase 19 (Homo sapiens) (UniProt Q56UN5); details: Compound concentration 100.0 nM
[24] = target: Tyrosine-protein kinase ABL1 (Homo sapiens) (UniProt P00519); details: Compound concentration 100.0 nM
[25] = target: Calcium/calmodulin-dependent protein kinase type II subunit gamma (Homo sapiens) (UniProt Q13555); details: Compound concentration 100.0 nM
[26] = target: 1-phosphatidylinositol 3-phosphate 5-kinase (Homo sapiens) (UniProt Q9Y2I7); details: Compound concentration 100.0 nM
[27] = target: Mitogen-activated protein kinase kinase kinase kinase 3 (Homo sapiens) (UniProt Q8IVH8); details: Compound concentration 100.0 nM
[28] = target: Cyclin-dependent kinase-like 3 (Homo sapiens) (UniProt Q8IVW4); details: Compound concentration 100.0 nM
[29] = target: Dual serine/threonine and tyrosine protein kinase (Homo sapiens) (UniProt Q6XUX3); details: Compound concentration 100.0 nM
[30] = target: Serine/threonine-protein kinase Nek1 (Homo sapiens) (UniProt Q96PY6); details: Compound concentration 100.0 nM
[31] = target: Insulin-like growth factor 1 receptor (Homo sapiens) (UniProt P08069); details: Compound concentration 100.0 nM
Sequence of Insulin-like growth factor 1 receptor (Homo sapiens) (P08069 31-736 limits assumed): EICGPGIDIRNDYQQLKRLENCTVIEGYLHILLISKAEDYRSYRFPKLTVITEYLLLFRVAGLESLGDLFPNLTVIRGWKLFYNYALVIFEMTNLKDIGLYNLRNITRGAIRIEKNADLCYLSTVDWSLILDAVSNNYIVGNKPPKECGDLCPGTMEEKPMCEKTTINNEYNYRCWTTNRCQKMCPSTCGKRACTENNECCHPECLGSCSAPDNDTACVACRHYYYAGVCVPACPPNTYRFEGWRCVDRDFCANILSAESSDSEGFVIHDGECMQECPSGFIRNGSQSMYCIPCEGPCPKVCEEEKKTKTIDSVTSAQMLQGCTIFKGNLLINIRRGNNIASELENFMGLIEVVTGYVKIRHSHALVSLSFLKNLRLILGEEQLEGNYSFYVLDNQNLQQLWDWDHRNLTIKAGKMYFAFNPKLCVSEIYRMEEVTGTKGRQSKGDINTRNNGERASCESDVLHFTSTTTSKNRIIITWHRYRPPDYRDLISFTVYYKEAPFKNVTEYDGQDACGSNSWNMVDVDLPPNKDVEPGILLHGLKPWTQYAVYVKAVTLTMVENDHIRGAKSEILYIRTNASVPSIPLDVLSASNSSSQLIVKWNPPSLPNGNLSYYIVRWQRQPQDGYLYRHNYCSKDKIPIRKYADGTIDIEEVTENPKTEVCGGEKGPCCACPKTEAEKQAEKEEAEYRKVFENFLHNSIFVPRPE
Sequence of Insulin-like growth factor 1 receptor (Homo sapiens) (P08069 741-1367 limits assumed): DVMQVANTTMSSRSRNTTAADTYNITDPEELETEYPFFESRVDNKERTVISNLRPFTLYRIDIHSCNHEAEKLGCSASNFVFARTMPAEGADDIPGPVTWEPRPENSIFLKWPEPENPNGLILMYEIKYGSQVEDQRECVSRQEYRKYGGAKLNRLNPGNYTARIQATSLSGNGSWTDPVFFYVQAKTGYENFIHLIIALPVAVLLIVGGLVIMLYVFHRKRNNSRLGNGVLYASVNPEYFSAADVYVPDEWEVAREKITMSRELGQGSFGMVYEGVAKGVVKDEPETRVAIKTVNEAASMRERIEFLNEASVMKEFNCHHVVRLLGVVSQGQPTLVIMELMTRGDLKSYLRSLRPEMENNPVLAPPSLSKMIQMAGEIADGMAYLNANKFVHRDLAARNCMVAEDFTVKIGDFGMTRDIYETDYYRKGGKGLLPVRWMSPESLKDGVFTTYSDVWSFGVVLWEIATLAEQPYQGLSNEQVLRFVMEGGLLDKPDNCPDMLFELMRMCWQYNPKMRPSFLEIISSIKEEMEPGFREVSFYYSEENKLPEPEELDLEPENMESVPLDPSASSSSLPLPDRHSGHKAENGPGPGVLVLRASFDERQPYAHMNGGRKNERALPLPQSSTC

[32] = target: Hormonally up-regulated neu tumor-associated kinase (Homo sapiens) (UniProt P57058); details: Compound concentration 100.0 nM
[33] = target: Ribosomal protein S6 kinase alpha-3 (Homo sapiens) (UniProt P51812); details: Compound concentration 100.0 nM
Sequence of Ribosomal protein S6 kinase alpha-3 (Homo sapiens) (P51812 whole entry): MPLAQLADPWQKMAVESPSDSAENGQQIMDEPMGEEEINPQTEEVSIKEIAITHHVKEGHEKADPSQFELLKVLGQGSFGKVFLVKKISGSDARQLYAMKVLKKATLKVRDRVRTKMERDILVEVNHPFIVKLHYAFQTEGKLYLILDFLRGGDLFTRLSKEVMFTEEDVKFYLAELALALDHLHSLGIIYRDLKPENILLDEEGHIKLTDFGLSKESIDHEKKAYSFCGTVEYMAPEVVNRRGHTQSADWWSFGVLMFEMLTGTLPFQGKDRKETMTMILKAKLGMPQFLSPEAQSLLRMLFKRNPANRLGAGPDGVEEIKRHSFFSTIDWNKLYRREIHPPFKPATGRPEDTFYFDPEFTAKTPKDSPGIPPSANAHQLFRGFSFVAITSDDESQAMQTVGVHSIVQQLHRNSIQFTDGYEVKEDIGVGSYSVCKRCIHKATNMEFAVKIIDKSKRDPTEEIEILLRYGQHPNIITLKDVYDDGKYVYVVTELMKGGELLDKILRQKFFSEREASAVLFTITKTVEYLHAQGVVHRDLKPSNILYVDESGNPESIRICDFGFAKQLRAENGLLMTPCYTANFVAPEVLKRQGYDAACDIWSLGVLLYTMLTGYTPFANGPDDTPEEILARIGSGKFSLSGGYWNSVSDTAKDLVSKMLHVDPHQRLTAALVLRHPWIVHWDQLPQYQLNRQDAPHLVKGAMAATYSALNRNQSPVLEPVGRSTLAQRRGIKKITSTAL

[34] = system: Receptor-type tyrosine-protein kinase FLT3 (Homo sapiens), P36888 [N841I]; details: Compound concentration 100.0 nM
[35] = target: Atypical kinase COQ8A, mitochondrial (Homo sapiens) (UniProt Q8NI60); details: Compound concentration 100.0 nM
[36] = target: Serine/threonine-protein kinase 17A (Homo sapiens) (UniProt Q9UEE5); details: Compound concentration 100.0 nM
[37] = target: Dual specificity calcium/calmodulin-dependent 3',5'-cyclic nucleotide phosphodiesterase 1A (Homo sapiens, UniProt P54750); test: Biochemical assay (PDE1A)
[38] = target: Macrophage colony-stimulating factor 1 receptor (Homo sapiens) (UniProt P07333); details: Compound concentration 100.0 nM
[39] = target: Homeodomain-interacting protein kinase 2 (Homo sapiens) (UniProt Q9H2X6); details: Compound concentration 100.0 nM
[40] = target: Mitogen-activated protein kinase kinase kinase 10 (Homo sapiens) (UniProt Q02779); details: Compound concentration 100.0 nM
[41] = target: Muscarinic acetylcholine receptor M3 (Homo sapiens) (UniProt P20309); details: Compound concentration 10.0 uM
[42] = target: Mitogen-activated protein kinase 4 (Homo sapiens) (UniProt P31152); details: Compound concentration 100.0 nM
Sequence of Mitogen-activated protein kinase 4 (Homo sapiens) (P31152 whole entry): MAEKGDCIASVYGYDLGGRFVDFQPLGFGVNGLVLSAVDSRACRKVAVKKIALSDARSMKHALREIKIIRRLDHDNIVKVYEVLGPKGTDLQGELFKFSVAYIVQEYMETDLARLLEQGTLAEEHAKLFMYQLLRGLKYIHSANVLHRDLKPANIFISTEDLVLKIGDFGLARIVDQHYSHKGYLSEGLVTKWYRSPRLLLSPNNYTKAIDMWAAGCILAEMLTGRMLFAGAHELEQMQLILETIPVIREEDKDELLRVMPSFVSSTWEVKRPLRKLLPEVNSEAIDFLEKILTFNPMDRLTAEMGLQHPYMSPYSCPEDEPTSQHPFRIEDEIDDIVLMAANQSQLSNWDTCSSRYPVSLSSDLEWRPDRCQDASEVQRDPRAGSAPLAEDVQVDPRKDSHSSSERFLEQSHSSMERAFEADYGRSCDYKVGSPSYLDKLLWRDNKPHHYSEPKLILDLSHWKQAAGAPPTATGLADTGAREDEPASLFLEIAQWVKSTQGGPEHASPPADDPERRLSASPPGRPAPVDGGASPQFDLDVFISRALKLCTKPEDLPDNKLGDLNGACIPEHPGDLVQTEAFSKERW

[43] = system: Tyrosine-protein kinase ABL1 (Homo sapiens), P00519 [Q252H]; details: Compound concentration 100.0 nM
[44] = system: Epidermal growth factor receptor (Homo sapiens), P00533 [G719S]; details: Compound concentration 100.0 nM

Sequence of Serine/threonine-protein kinase RIO1 (Homo sapiens) (Q9BRS2 whole entry): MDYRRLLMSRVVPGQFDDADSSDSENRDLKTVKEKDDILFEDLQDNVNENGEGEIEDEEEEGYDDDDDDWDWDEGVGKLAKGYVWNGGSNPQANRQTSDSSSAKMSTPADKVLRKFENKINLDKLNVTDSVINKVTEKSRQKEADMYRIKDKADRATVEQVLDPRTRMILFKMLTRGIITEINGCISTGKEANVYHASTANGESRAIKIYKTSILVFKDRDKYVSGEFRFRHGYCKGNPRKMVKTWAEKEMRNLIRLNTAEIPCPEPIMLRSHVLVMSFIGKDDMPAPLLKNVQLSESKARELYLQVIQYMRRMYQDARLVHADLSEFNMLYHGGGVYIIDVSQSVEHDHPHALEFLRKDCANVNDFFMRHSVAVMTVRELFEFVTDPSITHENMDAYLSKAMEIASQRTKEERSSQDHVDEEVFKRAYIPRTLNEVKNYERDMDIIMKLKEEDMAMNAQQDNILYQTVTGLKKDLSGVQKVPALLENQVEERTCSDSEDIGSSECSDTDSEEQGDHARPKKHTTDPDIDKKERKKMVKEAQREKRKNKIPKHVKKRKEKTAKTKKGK

CC(C)CC(=O)N1CCc2nc(-c3ccc(Br)cc3)nc(N(C)Cc3ccccc3)c2C1 [THPP-1-NC]
> 100 µM (not active): Ki [21]
inactive: residual activity [1] 100% | residual activity [2] 98% | residual activity [3] 100% | inhibition (Rattus norvegicus) 41% | residual activity [4] 100% | residual activity [5] 100% | residual activity [6] 100% | residual activity [7] 100% | residual activity [8] 100% | residual activity [9] 99% | residual activity [10] 94% | residual activity [11] 100% | residual activity [12] 99% | residual activity [13] 89% | residual activity [14] 68% | inhibition [15] 12.3% | residual activity [16] 100% | residual activity [17] 80% | residual activity [18] 100% | residual activity [19] 100% | residual activity [20] 91% | residual activity [22] 99% | residual activity [23] 100% | residual activity [24] 58% | residual activity [25] 100% | residual activity [26] 91% | residual activity [27] 95% | residual activity [28] 89% | residual activity [29] 100% | residual activity [30] 100% | residual activity [31] 83% | residual activity [32] 86% | residual activity [33] 94% | residual activity [34] 100% | residual activity [35] 100% | residual activity [36] 96% | residual activity [38] 100% | residual activity [39] 100% | residual activity [40] 96% | inhibition [41] 13.5% | residual activity [42] 100% | residual activity [43] 53% | residual activity [44] 100%
> 58.3 µM (not active): Ki [37]

COCCOc1nc(-c2ccc(Cl)nc2)nc2c1CN(C(=O)c1ncn3ccccc13)CC2 [THPP-1]
1.2 µM (not active): Ki [21]
inactive: residual activity [1] 100% | residual activity [2] 93% | residual activity [3] 100% | inhibition (Rattus norvegicus) 26.1% | residual activity [4] 100% | residual activity [5] 100% | residual activity [6] 100% | residual activity [7] 100% | residual activity [8] 100% | residual activity [9] 96% | residual activity [10] 100% | residual activity [11] 100% | residual activity [12] 100% | residual activity [13] 99% | residual activity [14] 70% | inhibition [15] 1.51% | residual activity [16] 100% | residual activity [17] 79% | residual activity [18] 100% | residual activity [19] 100% | residual activity [20] 84% | residual activity [22] 100% | residual activity [23] 100% | residual activity [24] 60% | residual activity [25] 100% | residual activity [26] 90% | residual activity [27] 100% | residual activity [28] 96% | residual activity [29] 100% | residual activity [30] 100% | residual activity [31] 82% | residual activity [32] 78% | residual activity [33] 100% | residual activity [34] 100% | residual activity [35] 100% | residual activity [36] 79% | residual activity [38] 100% | residual activity [39] 100% | residual activity [40] 100% | inhibition [41] 3.95% | residual activity [42] 100% | residual activity [43] 74% | residual activity [44] 97%
> 50 µM (not active): Ki [37]
